ChEMBL document CHEMBL5126507, “P2Y12 antagonists: Approved drugs, potential naturally isolated and synthesised compounds, and related in-silico studies” (Eur J Med Chem, 2022)
Blank lines part the entries; values can stand above or below the compound they belong to.

Key:
[1] = Antiplatelet activity in human platelet rich plasma assessed as inhibition of ADP-induced platelet aggregation preincubated for 5 mins followed by ADP addition and measured after 5 mins; assay type: functional, cell-based
P2Y purinoceptor 12 [2] = biological target: T1, P2Y purinoceptor 12 (Homo sapiens, UniProt Q9H244); test: Displacement of [3H]2MeSADP from human P2Y12 expressed in U2OS cell membranes incubated for 60 mins by scintillation counting method; set-up: species or system Membrane
T1 sequence (Q9H244 whole entry): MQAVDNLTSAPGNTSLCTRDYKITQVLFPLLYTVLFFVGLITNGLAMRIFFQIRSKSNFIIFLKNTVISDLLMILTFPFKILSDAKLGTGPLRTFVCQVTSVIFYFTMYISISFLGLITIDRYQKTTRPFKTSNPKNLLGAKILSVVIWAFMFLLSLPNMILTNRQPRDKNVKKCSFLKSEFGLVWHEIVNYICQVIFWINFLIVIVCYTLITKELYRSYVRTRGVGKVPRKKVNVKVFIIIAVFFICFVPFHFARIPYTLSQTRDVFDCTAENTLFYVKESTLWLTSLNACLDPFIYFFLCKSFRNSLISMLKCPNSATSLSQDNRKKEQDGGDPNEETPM

P2Y purinoceptor 12 [3] = biological target: T1, P2Y purinoceptor 12; test: Binding affinity to human P2Y12 expressed in astrocytoma cells; assay type: cell-based, Astrocyte
[4] = Antiplatelet activity in human platelet rich plasma assessed as inhibition of ADP-induced platelet aggregation preincubated for 2 mins followed by ADP addition and measured after 6 mins by Born method; assay type: functional, cell-based
Blood [5] = test: Ex vivo inhibition of platelet aggregation in Sprague-Dawley rat blood at 10 mg/kg, po measured after 2 hrs; assay type: functional; set-up: scale not given: the % may be the effect or the level left
Blood [6] = test: Ex vivo inhibition of platelet aggregation in Sprague-Dawley rat blood at 3 mg/kg, iv measured after 2 hrs; assay type: functional; set-up: scale not given: the % may be the effect or the level left
Blood [7] = test: Ex vivo inhibition of platelet aggregation in Sprague-Dawley rat blood at 1 mg/kg, iv measured after 2 hrs; assay type: functional
Blood [8] = test: Ex vivo inhibition of platelet aggregation in Sprague-Dawley rat blood at 3 mg/kg, po measured after 2 hrs; assay type: functional
[9] = Antiplatelet activity in rat platelet rich plasma assessed as inhibition of ADP-induced platelet aggregation preincubated for 1 min followed by ADP addition and measured after 6 mins by Born method; assay type: functional, cell-based
[10] = Antiplatelet activity in human platelet rich plasma assessed as inhibition of ADP-induced platelet aggregation preincubated for 1 min followed by ADP addition and measured after 6 to 8 mins by Born method; assay type: functional, cell-based
[11] = Antiplatelet activity in human platelet rich plasma assessed as inhibition of ADP-induced platelet aggregation preincubated for 2 mins followed by ADP addition for 5 mins; assay type: functional, cell-based
Blood [12] = test: Ex vivo inhibition of platelet aggregation in Sprague-Dawley rat blood at 3 mg/kg, iv measured after 30 mins; assay type: functional; conditions: 0.5 h
Rattus norvegicus = species: Rattus norvegicus; test: Anti-platelet aggregation activity in Sprague-Dawley rat assessed as reduction in bleeding time; assay type: functional
P2Y purinoceptor 12 [13] = biological target: T1, P2Y purinoceptor 12; test: Displacement of tritium-labeled 2MeSADP from human P2Y12 expressed in CHO cells measured after 2 hrs by scintillation counting method; assay type: cell-based
P2Y purinoceptor 12 [14] = biological target: T1, P2Y purinoceptor 12; test: Displacement of [3H]2MeSADP from P2Y12 (unknown origin)
[15] = Antiplatelet activity in human platelet rich plasma assessed as inhibition of ADP-induced platelet aggregation preincubated for 5 mins followed by ADP addition and measured after 20 mins by microplate reader analysis; assay type: functional, cell-based
[16] = Antiplatelet activity in human platelet rich plasma assessed as inhibition of CaCl2/fibrinogen-induced platelet aggregation preincubated for 5 mins followed by CaCl2/fibrinogen addition by microplate reader analysis; assay type: functional, cell-based
P2Y purinoceptor 12 [17] = biological target: T1, P2Y purinoceptor 12; test: Inhibition of 2-MeS-ADP induced P2Y12 (unknown origin) signalling expressed in CHO cells membrane incubated for 45 mins by 35S-GTPgammaS assay; assay type: functional, cell membranes

Structure (SMILES): O=C(/C=C/c1ccc(O)c2c1[C@H](C(=O)O[C@H](Cc1ccc(O)c(O)c1)C(=O)O)[C@@H](c1ccc(O)c(O)c1)O2)O[C@H](Cc1ccc(O)c(O)c1)C(=O)O
Ki (P2Y purinoceptor 12 [2]): 36400 nM

Structure (SMILES): Cc1cc(C)cc(Nc2cc(S(=O)(=O)O)c(N)c3c2C(=O)c2ccccc2C3=O)c1
Ki (P2Y purinoceptor 12 [3]): 63 nM

Structure (SMILES): CCOC(=O)N1CCN(C(=O)[C@H](CCC(=O)O)NC(=O)c2cc(OCC(=O)N3CCC[C@H]3C(=O)NC3CC3)n(-c3ccccc3)n2)CC1
IC50 [4]: ≤ 11 nM

Structure (SMILES): CCCC(=O)c1cnn(-c2ccc(NC(=O)c3cn(CC(=O)N4CCN(C)CC4)c4ccc(Cl)cc34)nn2)c1C
Activity (Blood [5]): 73.5%
Activity (Blood [6]): 79%

Structure (SMILES): CCCC(=O)c1cnn(-c2cnc(NC(=O)c3cn(CC(=O)N4CCN(C)CC4)c4ccc(Cl)cc34)cn2)c1C
inhibition in vivo at 1 mg/kg (Blood [7]): 86.3%
Activity (Blood [5]): 76%

Structure (SMILES): CCCC(=O)c1cnn(C2CCN(NC(=O)c3cn(CC(=O)N4CCN(C)CC4)c4ccc(Cl)cc34)CC2)c1C
inhibition in vivo at 3 mg/kg (Blood [8]): 72%
IC50 [9]: 43 nM
inhibition in vivo at 1 mg/kg (Blood [7]): 88%
IC50 [10]: 25 nM

Structure (SMILES): CCCC(=O)c1cnn(C2CCC(NC(=O)c3cn(CC(=O)N4CCN(C)CC4)c4ccc(Cl)cc34)CC2)c1C (stereo not given)
inhibition in vivo at 3 mg/kg (Blood [8]): 42.8%
IC50 [9]: 91 nM
inhibition in vivo at 3 mg/kg (Blood [12]): 79%
IC50 [10]: 270 nM

Structure (SMILES): COC(=O)C(c1ccccc1Cl)N1CCc2sc(OC(=O)C(N)CC(C)C)cc2C1.Cl (stereo not given)
ED50 (Rattus norvegicus): 2.16 mg/kg

Structure (SMILES): C[C@H]([C@@H](O)[C@H](O)[C@@H](C)C(C)(C)C)[C@H]1CC[C@H]2[C@@H]3CC[C@H]4C[C@@H](OS(=O)(=O)O)[C@H](OS(=O)(=O)O)C[C@]4(C)[C@H]3CC[C@]12C
IC50 (P2Y purinoceptor 12 [14]): 2200 nM

Structure (SMILES): CCCCOC(=O)N1CCN(C(=O)[C@H](CP(=O)(O)O)NC(=O)c2csc(-c3ccccc3)n2)CC1
IC50 (P2Y purinoceptor 12 [13]): 1 nM

Structure (SMILES): CCOC(=O)N1CCN(C(=O)[C@H](CCC(=O)O)NC(=O)c2cc(OCC(=O)N[C@@H](C)C(=O)O)n(-c3ccccc3)n2)CC1
IC50 [15]: 1480 nM

Structure (SMILES): CCOC(=O)N1CCN(C(=O)[C@H](CCC(=O)O)NC(=O)c2cc(OCC(=O)N3CCC[C@H]3C(=O)NCC(F)(F)F)n(-c3ccccc3)n2)CC1
IC50 [4]: ≤ 11 nM

Now from value to compound:

IC50 [1]: 1850 nM
Structure (SMILES): COc1cc(/C=C/c2cc(O)cc(O)c2)ccc1O

Ki (P2Y purinoceptor 12 [3]): 25 nM
Structure (SMILES): Cc1c(N)cccc1Nc1cc(S(=O)(=O)O)c(N)c2c1C(=O)c1ccccc1C2=O

IC50 [4]: ≤ 11 nM
Structure (SMILES): O=C(O)CC[C@H](NC(=O)c1cc(OCC(=O)N2CCC[C@H]2C(=O)NC2CCC2)n(-c2ccccc2)n1)C(=O)N1CCN(C(=O)OC2CCC2)CC1

IC50 [4]: ≤ 11 nM
Structure (SMILES): CCOC(=O)N1CCN(C(=O)[C@H](CCC(=O)O)NC(=O)c2cc(OCC(=O)N3CCC[C@H]3C(=O)NC3CCCC3)n(-c3ccccc3)n2)CC1

Ki (P2Y purinoceptor 12 [3]): 51 nM
Structure (SMILES): Cc1cc(Nc2ccc(Nc3ccccc3)c(S(=O)(=O)O)c2)c2c(c1N)C(=O)c1ccccc1C2=O

IC50 [11]: 8 nM
Structure (SMILES): CCCCOC(=O)N1CCN(C(=O)[C@H](CP(=O)(OCOC(=O)OC(C)C)OCOC(=O)OC(C)C)NC(=O)c2cc(N3CC[C@H](OC)C3)nc(-c3ccccc3)n2)CC1

IC50 (P2Y purinoceptor 12 [13]): 1 nM
Structure (SMILES): CCCCOC(=O)N1CCN(C(=O)[C@H](CCC(=O)O)NC(=O)c2nc(-c3ccccc3)sc2N2CC[C@H](OC)C2)CC1

IC50 (P2Y purinoceptor 12 [14]): 480 nM
Structure (SMILES): C[C@H](CC[C@@H](C)C(C)(C)C)[C@H]1CC[C@H]2[C@@H]3C[C@H](OS(=O)(=O)O)[C@H]4C[C@@H](OS(=O)(=O)O)[C@H](OS(=O)(=O)O)C[C@]4(C)[C@H]3CC[C@]12C

IC50 [16]: 2910 nM
Structure (SMILES): CCCSc1nc(N[C@@H]2C[C@H]2c2ccccc2)c2nnn([C@@H]3C=C[C@H](OCC(=O)O)[C@@H](O)[C@H]3O)c2n1

IC50 (P2Y purinoceptor 12 [17]): 100 nM
Structure (SMILES): CCCC(=O)c1cc(C#N)c(N(C(=O)C2CCNCC2)S(=O)(=O)Cc2cccc(F)c2)nc1C
